Results on nine compounds are retold here after patent EP1618784A1, “AQUEOUS AGRICULTURAL-CHEMICAL SUSPENSION COMPOSITION” (KUMIAI CHEMICAL INDUSTRY CO., LTD., priority 2003, dated 2004).

Data set [1] is described as follows: Solubility of the agrochemically active ingredient in the aqueous solution of water-soluble compound (B). The data set is classed as physicochemical. The protocol: While the method for measuring the solubility of the agrochemically active ingredient as the component (A) in the aqueous solution of the water-soluble compound as the component (B) is not particularly limitative, the method contains, for example, adding an excess amount of the agrochemically active ingredient in an aqueous solution in which given quantities of the water-soluble compound are dissolved in water, filtering the solution with a membrane filter after stirring at room temperature for several hours, and analyzing the concentration in the filtrate according to an analysis method of the respective agrochemically active ingredients to calculate the solubility. The concentrations of the water-soluble compounds for allowing the solubility of the respective agrochemically active ingredients to be smaller than 2 g/100 ml are determined in the invention by preparing aqueous solutions with different concentrations of variety of the component (B) such as an inorganic acid, the specified organic acid and alkali metal salt and ammonium salt thereof and by measuring the solubility of the agrochemically active ingredient in each aqueous solution.

The conditions of data set [2]: cited from earlier work.

Counter-ions that a name gives are not always drawn. Like-named read-outs stand apart in the source and are kept apart here.

With `COc1nn(C(=O)NS(=O)(=O)c2ccccc2OC(F)(F)F)c(=O)n1C` [flucarbazone-sodium, 4,5-dihydro-3-methoxy-4-methyl-5-oxo-N-[(2-(trifluoromethoxy)phenylsulfonyl]-1 H-1,2,4-triazole-1-carboxyamidesodium salt], the solubility in data set [1] (aqueous acetic acid/sodium acetate, 0.23 part acetic acid and 2.8 parts sodium acetate in 73.77 parts water (Example 5)) worked out at 11000 µg/mL. Moreover, in data set [2] (20 °C, pure water), the solubility in water is given as 4.4 g/100 ml. Take `CCc1c(C(=O)[O-])c(=O)cnn1-c1ccc(Cl)cc1.[K+]` [clofencet-potassium, potassium 2-(4-chlorophenyl)-3-ethyl-2,5-dihydro-5-oxopyridazine-4-carboxylate]: in data set [2] (20 °C, pure water), the solubility in water result is reported as “at least 65.5 g/100 ml”. In the case of `Cc1cc(Cl)ccc1OCC(=O)[O-].[Na+]` [MCPA-sodium, sodium (4-chloro-2-methylphenoxy)acetate], the solubility in water in data set [2] (water) was 27 g/100 ml. Take `CN/C(=N/CC1CCOC1)N[N+](=O)[O-]` (racemic) [dinotefuran, (EZ)-(RS)-1-methyl-2-nitro-3-(tetrahydro-3-furylmethyl)guanidine]: in data set [2] (20 °C, pure water), the solubility in water is on record as 5.43 g/100 ml. Consider `Oc1cccc2cccnc12` [8-hydroxyquinoline sulfate, bis(8-hydroxyquinolinium)sulfate], for which the solubility in water in data set [2] (20 °C, pure water) is on record as 30 g/100 ml. For the compound `COc1cc(OC)nc(Sc2cccc(Cl)c2C(=O)[O-])n1.[Na+]` [pyrithiobac-sodium, sodium 2-chloro-6-(4,6-dimethoxypyrimidin-2-ylthio)benzoate], in data set [2] (20 °C, at pH 5), the solubility in water is 26.4 g/100 ml. As for `COC(=O)NS(=O)(=O)c1ccc(N)cc1.[Ca]` [asulam-calcium, calcium methyl sulfanilylcarbamate], the solubility in water in data set [2] (20 °C, pure water) is reported as 20 g/100 ml.

Consider `COC(=O)c1ccc(C(F)(F)F)nc1S(=O)(=O)NC(=O)Nc1nc(OC)cc(OC)n1.[Na]` [flupyrsulfuron-methyl-sodium, methyl 2-(4,6-dimethoxypyrimidine-2-ylcarbamoylsulfamoyl)-6-trifluoromethylnicotinate monosodium salt], for which the solubility in water in data set [2] (20 °C, pure water) is on record as 6.3 g/100 ml. As for `COc1cc(OC)nc(Oc2cccc(Oc3nc(OC)cc(OC)n3)c2C(=O)[O-])n1.[Na+]` [bispyribac-sodium, sodium 2,6-bis(4,6-dimethoxypyrimidin-2-yloxy)benzoate], the solubility in data set [1] (aqueous ammonium hydrogencarbonate, 3.1 parts ammonium hydrogencarbonate in 75.4 parts water (Example 4)) was determined as 9000 µg/mL; in data set [1] (aqueous sodium chloride, 3.1 parts sodium chloride in 75.4 parts water (Example 3)) it was 6000 µg/mL; in data set [1] (aqueous sodium hydrogencarbonate/sodium carbonate, 1.4 parts sodium hydrogencarbonate and 0.16 part sodium carbonate in 76.94 parts water (Comparative Example 2)), 30000 µg/mL; in data set [1] (aqueous sodium hydrogencarbonate/sodium carbonate, 1.6 parts sodium hydrogencarbonate and 0.18 part sodium carbonate in 46.77 parts water (Example 1)), 14000 µg/mL; in data set [1] (aqueous sodium hydrogencarbonate/sodium carbonate, 3.9 parts sodium hydrogencarbonate and 0.44 part sodium carbonate in 74.16 parts water (Example 2)) it was 4000 µg/mL. Besides, the solubility in water in data set [2] (20 °C, pure water) is listed as 7.3 g/100 ml.

In general, solubility refers to the concentration that dissolves in the medium under given conditions.
